{"source": "patent US8034781B2", "about": "“Angiotensin-(1-7) and angiotensin-(1-7) agonists for inhibition of cancer cell growth” (Wake Forest University Health Sciences, priority 2002, dated 2011)", "key": {"[1]": {"system": "SK-LU-1 lung cancer cells", "type": "cell-based, human", "settings": "for effect on serum-stimulated 3H-thymidine incorporation: SK-LU-1, peptide at 1 or 100 nM (FIG. 8); for effect of antagonist on inhibition of serum-stimulated growth by Ang-(1-7): SK-LU-1 (FIG. 7)", "method": "(§6) Cells were grown in DMEM with 10% fetal bovine serum (FBS), 100 μg/mL penicillin and 100 units/mL streptomycin in a humidified 37° C. incubator gassed with 5% CO2 and 95% room air. Cells were grown to subconfluence in either 24-well cluster plates or 100 mm dishes and made quiescent by treatment for 48 h with serum-depleted growth media, prior to the experiments outlined below to measure cell growth (^3H-thymidine incorporation), cell signaling or apoptosis."}, "[2]": {"system": "SK-MES-1 lung cancer cells", "type": "cell-based, human", "method": "as §6\nTo measure ^3H-thymidine incorporation, quiescent cells were incubated with serum and angiotensin peptides for 24 h at 37° C. ^3H-thymidine (0.25 μCi/well) was added and the cells incubated for an additional 4 h to incorporate the radiolabeled nucleotide. Subsequently, the cell monolayer was washed with cold phosphate-buffered saline (PBS; 50 mM NaPO4, 120 mM NaCl, pH=7.2). […] Incorporated ^3H-thymidine was determined by liquid scintillation spectrometry, as previously described (Freeman, E. J. et al., Hypertension, 1996, 28:104-108). […]"}, "[3]": {"system": "vascular growth stimulated by balloon catheter injury to the rat carotid artery", "assay": "Balloon catheter injury to the rat carotid artery, intravenous minipump infusion", "type": "in vivo", "source_text": "(§1) In these same animals, the cross-sectional area of the neointima was reduced to 0.09±0.01 mm^2 as compared to 0.12±0.02 mm^2 in saline-treated controls (p<0.05)."}, "[4]": {"assay": "Balloon catheter injury to the rat carotid artery, intravenous minipump infusion", "type": "in vivo", "settings": "rat, plasma, 24 ug/kg/h; intravenous minipump 24 μg/kg/h, 12 days, carotid artery-injured rats", "source_text": "as §1"}, "[5]": {"system": "ZR-75-1 breast cancer cells", "type": "cell-based, human", "experimental": "(§2) Vascular smooth muscle cells were isolated form 12-14 week old Sprague-Dawley rats by explant culture (Freeman, E. J. et al., Hypertension, 1996, 28:104-108). Human lung and breast cancer cell lines were obtained from American Type Tissue Culture (ATTC) and included cells of the SK-LU-1 and A549 cell lines (both of which are derived from adenocarcinomas) as well as SK-MES-1 cells (derived from non-small cell lung tumors) and ZR-75-1 breast cancer cells.\n(§3) Cells were grown in DMEM with 10% fetal bovine serum (FBS), […] in a humidified 37° C. incubator gassed with 5% CO2 and 95% room air. Cells were grown to subconfluence in either 24-well cluster plates or 100 mm dishes and made quiescent by treatment for 48 h with serum-depleted growth media, prior to the experiments outlined below to measure cell growth (^3H-thymidine incorporation), cell signaling or apoptosis.\nTo measure ^3H-thymidine incorporation, quiescent cells were incubated with serum and angiotensin peptides for 24 h at 37° C. ^3H-thymidine (0.25 μCi/well) was added and the cells incubated for an additional 4 h to incorporate the radiolabeled nucleotide. […] Incorporated ^3H-thymidine was determined by liquid scintillation spectrometry, as previously described (Freeman, E. J. et al., Hypertension, 1996, 28:104-108). […]"}, "AT2 angiotensin receptor": {"target": "T1, AT2 angiotensin receptor (Homo sapiens, UniProt P50052)", "T1 sequence (P50052 1-363)": "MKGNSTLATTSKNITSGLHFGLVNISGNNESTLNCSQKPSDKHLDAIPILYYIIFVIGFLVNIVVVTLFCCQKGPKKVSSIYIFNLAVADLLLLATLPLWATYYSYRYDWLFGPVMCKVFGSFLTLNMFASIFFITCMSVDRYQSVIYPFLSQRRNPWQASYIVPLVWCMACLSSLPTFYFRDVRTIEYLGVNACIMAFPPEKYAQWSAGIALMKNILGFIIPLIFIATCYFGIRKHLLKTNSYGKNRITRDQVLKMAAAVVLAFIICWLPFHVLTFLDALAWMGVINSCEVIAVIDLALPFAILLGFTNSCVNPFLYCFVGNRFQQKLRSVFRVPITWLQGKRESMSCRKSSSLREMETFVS", "settings": "cited from earlier work"}, "[6]": {"system": "vascular growth stimulated by balloon catheter injury to the rat carotid artery", "settings": "previous studies with rats, 24 μg/kg/hr; cited from earlier work"}, "ERK1": {"system": "ERK1", "assay": "ERK1 phosphorylation in VSMCs, phospho-specific antibodies", "type": "cell-based, rat", "experimental": "(§4) Reactions were terminated with Triton lysis buffer (50 mM Tris-HCl, pH 7.4, 1% Triton X-100, 100 mM NaCl, 5 mM EDTA, 50 mM NaF, 0.6 μM leupeptin, 0.01 mM Na3VO4 and 0.1 mM PMSF) and protein concentrations determined (Lowry, O. H., et al., J. Biol. Chem., 1951, 193:265-275). Proteins were separated by SDS polyacrylamide gel electrophoresis and transferred to polyvinyl membranes. The activation and autophosphorylation of ERK1 and ERK2 was determined using antibodies specific for the phosphorylated kinases (using antibodies from Cell Signaling Technologies). The immunoreactive product were visualized by enhanced chemiluminescence (ECL, Amersham) and quantified by densitometry, using the MCID image analysis system. The phospho-MAP kinase antibodies only recognize the catalytically activated and phosphorylated forms of MAP kinase (both ERK1 and ERK2 MAP kinase). The blots were also probed with antibodies to ERK1/2, to control for protein loading.\n(§5) The activity of the MAP kinases ERK1 and ERK2 in VSMCs was measured using phospho-specific antibodies that only recognize the activated protein kinases."}, "ERK2": {"system": "ERK2", "assay": "ERK2 phosphorylation in VSMCs, phospho-specific antibodies", "type": "cell-based, rat", "experimental": "as §4, §5"}, "[7]": {"system": "vascular smooth muscle cells (VSMCs)", "type": "cell-based, Sprague-Dawley rats", "settings": "for effect of antagonist on Ang-(1-7) attenuation of serum-stimulated thymidine incorporation: 1 μM Ang-(1-7), FBS (FIG. 2)", "experimental": "as §2, §3\nTo measure ^3H-thymidine incorporation, quiescent cells were incubated with serum and angiotensin peptides for 24 h at 37° C. ^3H-thymidine (0.25 μCi/well) was added and the cells incubated for an additional 4 h to incorporate the radiolabeled nucleotide. Subsequently, the cell monolayer was washed with cold phosphate-buffered saline (PBS; 50 mM NaPO4, 120 mM NaCl, pH=7.2). The adherent cells were precipitated with cold 10% TCA (4° C. for 30 min) and dissolved in 0.2% SDS in 0.1 N NaOH. Incorporated ^3H-thymidine was determined by liquid scintillation spectrometry, as previously described (Freeman, E. J. et al., Hypertension, 1996, 28:104-108). Growth inhibition was defined as a reduction in the amount of ^3H-thymidine incorporation as compared to the mitogen-stimulated controls.\nDuring an additional 4 h, cell monolayers were pulsed with ^3H-thymidine (0.25 μCi/well) and harvested."}, "AT1 angiotensin receptor": {"system": "AT1 angiotensin receptor", "settings": "cited from earlier work"}, "[8]": {"system": "vascular smooth muscle cells (VSMCs)", "assay": "Total cell number of VSMCs by Coulter counter", "type": "cell-based, Sprague-Dawley rats", "settings": "Ang II alone", "experimental": "Total cell number in response to treatment with Ang-(1-7) was also determined using a Coulter counter. The number of cells per well increased to 142% of basal following treatment with 1% serum."}, "[9]": {"settings": "maximal stimulation by 1 μM Ang II"}, "[10]": {"settings": "lisinopril 20 mg/kg/day for 14 days"}}, "note": "Square brackets hold non-standard residues; d marks the D form. Ends that are not written are not given here. Sar = CNCC(=O)O", "data": [{"compound": "CC[C@H](C)[C@H](NC(=O)[C@H](Cc1ccc(O)cc1)NC(=O)[C@@H](NC(=O)[C@H](CCCNC(=N)N)NC(=O)[C@@H](N)CC(=O)O)C(C)C)C(=O)N[C@@H](Cc1c[nH]cn1)C(=O)N1CCC[C@H]1C(=O)O", "note": "[Ang-(1-7), Asp-Arg-Val-Tyr-Ile-His-Pro]", "values": [{"measurement": "IC50", "setting": "[1]", "value": 0.05, "unit": "nM"}, {"measurement": "IC50", "setting": "[2]", "value": 0.4, "unit": "nM"}, {"measurement": "blood pressure", "setting": "[3]; Ang-(1-7) infusion vs saline", "value": "similar"}, {"measurement": "heart rate", "setting": "[3]; Ang-(1-7) infusion vs saline", "value": "similar"}, {"measurement": "level at time molar at 288 h", "setting": "[4]", "value": "0.131 ± 0.0397", "unit": "nM"}, {"measurement": "IC50", "setting": "[5]", "value": 0.02, "unit": "nM"}, {"measurement": "IC50 levels at the AT2 angiotensin receptor", "setting": "AT2 angiotensin receptor", "value": "micromolar range"}, {"measurement": "change in weight, blood pressure, or heart rate", "setting": "[6]", "value": "no change"}]}, {"compound": "Val-Tyr-Ile-His-Pro-Phe (VYIHPF; listed as Homo sapiens) [Ang-(3-8)]", "values": [{"measurement": "effect on serum-stimulated 3H-thymidine incorporation", "setting": "[1]", "value": "ineffective"}]}, {"compound": "PDGF", "values": [{"measurement": "increase of ERK1 activity over basal", "setting": "ERK1; 10 ng/mL PDGF", "value": 16, "unit": "fold"}, {"measurement": "increase of ERK2 activity over basal", "setting": "ERK2; 10 ng/mL PDGF", "value": 26, "unit": "fold"}]}, {"compound": "Sar-Arg-Val-Tyr-Ile-His-Pro-Thr ([Sar]RVYIHPT) [[Sar^1-Thr^8]-Ang II]", "values": [{"measurement": "effect of antagonist on Ang-(1-7) attenuation of serum-stimulated thymidine incorporation", "setting": "[7]; VSMCs", "value": "completely blocked"}]}, {"compound": "CCc1nc2c(C)cc(C)nc2n1Cc1ccc(-c2ccccc2-c2nn[nH]n2)cc1", "note": "[L158,809]", "values": [{"measurement": "effect of antagonist on Ang-(1-7) attenuation of serum-stimulated thymidine incorporation", "setting": "[7]; VSMCs", "value": "unaffected"}]}, {"compound": "Cc1cc(Cn2cnc3c2C[C@@H](C(=O)O)N(C(=O)C(c2ccccc2)c2ccccc2)C3)ccc1N(C)C", "note": "[PD 123319]", "values": [{"measurement": "effect of antagonist on Ang-(1-7) attenuation of serum-stimulated thymidine incorporation", "setting": "[7]; VSMCs", "value": "not prevented"}]}, {"compound": "Asp-Arg-Val-Tyr-Ile-His-[D]Ala (DRVYIH[dA]) [[D-Ala^7]-Ang-(1-7)]", "values": [{"measurement": "effect of antagonist on inhibition of serum-stimulated growth by Ang-(1-7)", "setting": "[1]", "value": "blocked"}, {"measurement": "effect of antagonist on Ang-(1-7) attenuation of serum-stimulated thymidine incorporation", "setting": "[7]; VSMCs", "value": "blocked"}, {"measurement": "competition at the AT1 receptor", "setting": "AT1 angiotensin receptor", "value": "poor competitor"}, {"measurement": "competition at the AT2 receptor", "setting": "AT2 angiotensin receptor", "value": "poor competitor"}]}, {"compound": "Asp-Arg-Val-Tyr-Ile-His-Pro-Phe (DRVYIHPF; listed as Homo sapiens) [Ang II]", "values": [{"measurement": "increase in ERK1 phosphorylation over basal", "setting": "ERK1; [9]", "value": 37, "unit": "fold"}, {"measurement": "effect on serum-stimulated 3H-thymidine incorporation", "setting": "[1]", "value": "ineffective"}, {"measurement": "effect on 3H-thymidine incorporation into VSMCs", "setting": "[7]; peptide alone, dose response (FIG. 1)", "value": "dose-dependent stimulation"}, {"measurement": "increase in ERK2 phosphorylation over basal", "setting": "ERK2; [9]", "value": 166, "unit": "fold"}, {"measurement": "number of cells per well", "setting": "[8]", "value": "145 % of basal"}]}, {"compound": "CCCCc1nc(Cl)c(CO)n1Cc1ccc(-c2ccccc2-c2nn[nH]n2)cc1", "note": "[Losartan]", "values": [{"measurement": "effect of antagonist on inhibition of serum-stimulated growth by Ang-(1-7)", "setting": "[1]", "value": "neither AT1 nor AT2 angiotensin receptor antagonists Losartan and PD123177, respectively, were effective"}]}, {"compound": "CCN(CC)CC.Nc1ncnc2c1ncn2[C@@H]1O[C@@H]2COP(O)(=S)O[C@H]2[C@H]1O", "note": "(some centres unmarked) [Rp-cAMPS, Rp-adenosine-3′,5′-cyclic monphosphophorothioate triethylamine salt]", "values": [{"measurement": "effect on reduction in serum-stimulated 3H-thymidine incorporation by Ang-(1-7) or carbacyclin", "setting": "[7]; VSMCs, pretreatment 10 μM (FIG. 10)", "value": "completely blocked"}]}, {"compound": "NCCCC[C@H](N[C@@H](CCc1ccccc1)C(=O)O)C(=O)N1CCC[C@H]1C(=O)O", "note": "[lisinopril]", "values": [{"measurement": "cross-sectional area of the neointima", "setting": "[3]; [10]", "value": "0.09±0.01", "unit": "mm^2"}, {"measurement": "elevation of plasma levels of Ang-(1-7) vs saline", "setting": "[3]; [10]", "value": 2.3, "unit": "fold"}, {"measurement": "plasma levels of Ang-(1-7)", "setting": "[3]; lisinopril 20 mg/kg/day for 14 days, balloon catheter injury", "value": "99.1 ± 6.7", "unit": "pM"}]}, {"compound": "C#CCCCCCCCCCCCCCCCC(=O)O", "note": "[17-octadecynoic acid]", "values": [{"measurement": "effect on growth inhibition by Ang-(1-7)", "setting": "[7]; VSMCs, cytochrome P450 inhibitor", "value": "neither a lipoxygenase inhibitor nor the cytochrome P450 inhibitor 17-octadecynoic acid had any effect"}]}, {"compound": "Arg-Val-Tyr-Ile-His-Pro-Phe (RVYIHPF; listed as Homo sapiens) [Ang-(2-8)]", "values": [{"measurement": "effect on serum-stimulated 3H-thymidine incorporation", "setting": "[1]", "value": "ineffective"}]}, {"compound": "Val-Tyr-Ile-His-Pro (VYIHP; listed as Homo sapiens) [Ang-(3-7)]", "values": [{"measurement": "effect on serum-stimulated 3H-thymidine incorporation", "setting": "[1]", "value": "ineffective"}]}, {"compound": "Cc1cc(Cn2cnc3c2CC(C(=O)O)N(C(=O)C(c2ccccc2)c2ccccc2)C3)ccc1N", "note": "(centres unmarked) [PD123177]", "values": [{"measurement": "effect of antagonist on inhibition of serum-stimulated growth by Ang-(1-7)", "setting": "[1]", "value": "neither AT1 nor AT2 angiotensin receptor antagonists Losartan and PD123177, respectively, were effective"}, {"measurement": "effect of antagonist on Ang-(1-7) attenuation of serum-stimulated thymidine incorporation", "setting": "[7]; VSMCs", "value": "unaffected"}]}, {"compound": "DRVYIHPFHL [Ang I]", "values": [{"measurement": "effect on serum-stimulated 3H-thymidine incorporation", "setting": "[1]", "value": "ineffective"}]}, {"compound": "CCCCC[C@H](O)/C=C/[C@@H]1[C@H]2C/C(=C/CCCC(=O)O)C[C@H]2C[C@H]1O", "note": "[carbacyclin]", "values": [{"measurement": "effect on serum-stimulated 3H-thymidine incorporation", "setting": "[7]; VSMCs, 5 μM (FIG. 10)", "value": "reduction"}]}]}
